# Where two headings read alike, the source gives them in different places.
# Legend:
# female rats = experiment: Solid gastric emptying studies; format: in vivo, rat; details: for Effect on gastric emptying for solids: OVX female rats, 21 day release pellets E2 2 mg or P4 20 mg per kg
# Description: In addition, using the similar gastric emptying protocol, accelerated gastric emptying was observed instead of delayed gastric emptying in spontaneous diabetic female but not in male diabetic animals (101).
# According to the protocol, animals were fasted over night (provide water). On the next day, known amount of food was fed to the animals for 3 h. At the end of 3 h collected the remaining food from the cage and calculated the amount of food intake. Then fast the animals for 4 hrs without food and water. At the end of fast, animals were euthanized, collected the gastric tissue and measured the weight of the whole stomach. Then removed the food contents by opening the stomach and measured the empty stomach weight. The rate of gastric emptying was calculated according to the following equation: gastric emptying (% in 4 h)=(1−gastric content food intake^−1)×100.
# gastric tissues = experiment: Nitrergic relaxation of gastric tissues after in vitro incubation (organ bath); design: species or system rat
# nNOSalpha = nNOSalpha dimerization, LT-SDS-PAGE, after in vivo treatment; design: species or system rat; details: for nNOSalpha dimmer/monomer level: diabetic female rat gastric antrum, sepiapterin 10 days or BH4 2 weeks, 20 mg kg^−1 per day
# Description: Levels of nNOSa monomer and dimer were quantified by western blotting via Low temperature (LT)-PAGE in gastric antrum homogenates as described previously (94). LT-SDS-PAGE was performed on ice. The low-temperature process was used to identify nNOS dimers and monomers in the native state as low temperature is known to prevent monomerization of nNOS dimmers. For the low-temperature processing, 30 μg of protein in standard Laemmli buffer at 4° C. was used for SDS-PAGE. The mixture was incubated at 0° C. for 30 min before LT-SDS-PAGE using a 6% separating gel. All gels and buffers were pre-equilibrated to 4° C. prior to electrophoresis and the buffer tank placed in an ice-bath during electrophoresis to maintain the gel temperature below 15° C. A polyclonal antibody specific to nNOSa (Zymed Laboratories) and anti-rabbit IgG conjugated with horseradish peroxidase (Sigma Chemical, St. Louis, Mo.) were used as the primary and secondary antibodies, respectively.
# nNOSalpha protein = nNOSalpha protein expression, Western blot; format: in vivo, rat; details: for nNOSalpha protein level: diabetic female rat gastric antrum, sepiapterin 10 days or BH4 2 weeks, 20 mg kg^−1 per day
# Description: nNOSa protein was quantified in gastric antrum homogenates from all groups using standard western blot analysis, as described in our previous study (94). Proteins were measured by Bio-Rad protein assay (Bio-Rad, Hercules, Calif.) and 30 μg protein was separated by 6% SDS polyacrylamide gel electrophoresis (SDS-PAGE). The membrane was immunoblotted with polyclonal nNOSa primary antibody (Zymed Laboratories Inc., CA) and anti-rabbit IgG conjugated with horseradish peroxidase (Sigma Chemical, St. Louis, Mo.) as secondary antibody. Binding of antibodies to the blots was detected with enhanced chemiluminescence system (ECL, Amersham Pharmacia Biotech, Piscataway, N.J.) following manufacturer's instructions. Stripped blots were re-probed with g-tubulin specific polyclonal antibodies (Sigma Chemical, St. Louis, Mo.) to enable normalization of signals between samples. Band intensities were analyzed using Bio-Rad Gel Doc (Bio-Rad, Hercules, Calif.).
# [1] = Body weight in control and STZ-diabetic female rats; format: in vivo, rat; details: STZ-diabetic female rats + SEP 20 mg kg^−1 day^−1, 10 days
# Description: (§1) Diabetes was induced in overnight fasted animals by a single intraperitoneal injection of streptozotocin (STZ, 55 mg kg^−1) (Sigma Chemical, St. Louis, Mo.) prepared in 9 mmol citrate buffer, pH 4.0. Control animals were injected with the vehicle (9 mmol citrate buffer, pH 4.0) (94). Blood glucose levels were examined in overnight fasted animals, 48 h post STZ injection. […] Blood glucose levels in vehicle-treated overnight fasting rats ranged between 80-95 mg dl^−1. Both control and diabetic female rats were selected during the diestrus phase of the estrous cycle using vaginal smear testing method [by measuring vaginal cytology (90-100% of leucocytes) under microscope] for further experiments. As reported earlier, 60-70% of diabetic rats show a persistent diestrous stage of the estrous cycle (data not shown) (95-96).
# (§2) At the end of 7th week of diabetes induction, animals were divided into four groups, i.e. control female rats (C), diabetic female rats (DB), BH4 supplemented diabetic female rats (DB+BH4) and SEP supplemented diabetic female rats (DB+SEP). DB+BH4 were provided with BH4 pellets (20 mg kg^−1 body wt day^−1) for next 2 weeks. […] Tissue samples were snap frozen in liquid nitrogen and stored at −80° C. until analyzed. BH4 or SEP-pellets used in this study were prepared by compressing (Schircks Laboratories, Switzerland) with rodent chow and stored at −20° C. until used. […]
# [2] = test system: gastric antrum muscle strip; experiment: In vitro NO release from gastric antrum strips (total nitrite); design: species or system rat; details: 48 h incubation
# Description: Animals from control groups were killed by CO2 asphyxiation, the abdominal cavity opened, and the stomach dissected and transferred in chilled oxygenated Krebs bicarbonate solution of the following composition (in mmol): 118.0 NaCl, 4.7 KCl, 25.0 NaHCO3, 1.5 CaCl2, 1.2 MgSO4, 1.2 KH2PO4, and 11.5 glucose (pH 7.4). Antrum tissue was harvested and cut into mucosa-free strips and were cultured for 48 h (37° C., 5% CO2) in […] of phenol red-free DMEM supplemented with NB27 (2%) and antibiotics (1%) in the presence of normal glucose (control), control+MTX (100 μM), control+MTX+SEP (100 μM, 100 μM). On completion of incubation, DMEM ([…]) was collected and stored at −80° C. for analysis of NO released in medium during incubation period. NO released in the medium was analyzed as total nitrite (metabolic byproduct of NO) following the protocol supplied with a commercially available kit (EMD Chemicals, Gibbstown, N.J.).
# [3] = Fasting blood glucose in control and STZ-diabetic female rats; format: in vivo, rat
# Description: as §1, §2
# gastric muscle strips = experiment: EFS-induced nitrergic (NANC) relaxation of gastric muscle strips after in vivo treatment (organ bath); design: species or system rat
# Description: Electric field stimulation (EFS)-induced NANC relaxation was studied in circular gastric antrum muscle strips. Muscle strips were tied with silk thread at both ends and were mounted in 10-ml water-jacketed organ baths containing Krebs buffer (11 mM glucose) at 37° C. and continuously bubbled with 95% O2-5% CO2 (Radnoti Glass Technology, Monrovia, Calif.). Tension for each muscle strip was monitored with an isometric force transducer and analyzed by a digital recording system (Biopac Systems, Santa Barbara, Calif.). A passive tension equal to 2 g was applied on each strip in the 1 h equilibration period through an incremental increase (0.5 g, four times, at 15 min interval). Gastric antrum muscle strips were exposed to atropine, phentolamine and propranolol (10 μmol each) in bath solution for 1 h to block cholinergic and adrenergic responses. 5-hydroxytryptamine (5-HT; 100 μM) pre-contracted strips were exposed to EFS (90 V, 2 Hz, 1-ms pulse for duration of 1 min) to elicit NANC relaxation.
# To investigate the in vivo effect of methotrexate (MTX) on EFS induced nitrergic relaxation; a group of animals were supplemented with MTX (inhibitor of dihydro folate reductase, DHFR) 3.75 mg kg^−1 body wt. per twice a day for 4 days. Gastric strips from control animals and MTX treated animals were incubated in organ bath and nitrergic relaxation was measured by EFS. At the end of each experiment, the muscle strip was blotted dry with filter paper and weighed. Comparisons between groups were performed by measuring the area under the curve (AUC mg^−1 tissue) of the EFS-induced relaxation (AUCR) for 1 min and the baseline for 1 min (AUCB) according to the formula (AUCR−AUCB) weight of tissue (mg)^−1=AUC mg of tissue^−1.
# gastric LM-MPs = experiment: NO release from gastric LM-MP incubated with DAHP; details: DAHP 10 mM, 48 hours, healthy female rat gastric LM-MP
# Description: (§3) Gastric LM-MPs were incubated for 48 hrs in the presence or the absence of DAHP (10 mM) and nNOS dimerization (FIG. 9A-9B) in tissues and NO release (FIG. 9C) in the media were assessed. (n=3).
# Gastric LM-MPs were incubated for 24 hours in DMEM supplemented with 2% neurobasal medium (NB27) and 1% antibiotics. The concentration of NO (micromoles/mg tissue) was measured using readily available NO kit (Cayman corporation). […] The present invention contemplates examining whether supplementation of BH4 and female sex hormones restores reduced NO release in diabetic female gastric LM-MP tissues.
# (§4) The present invention examined whether treatment with DAHP in vitro uncoupled gastric nNOS dimerization and NO release in healthy female rats. Gastric longitudinal muscle-myenteric plexus (LM-MP) were incubated for 48 hours in the presence or absence of DHAP (10 mM). It was observed that inhibition of BH4 biosynthesis with DAHP decreased both nNOS dimerization (FIGS. 9A-9B) and NO release (FIG. 9C). These additional data further support the hypothesis that impaired biosynthesis of gastric BH4 accounts for the decrease in nNOS activity and nitrergic relaxation in female diabetic gastroparesis.
# nNOS = nNOS dimerization in gastric LM-MP incubated in vitro; details: DAHP 10 mM, 48 hours, healthy female rat gastric LM-MP
# Description: as §3, §4
# rats = experiment: Intragastric (antrum) pressure by ambulatory telemetry; format: in vivo, rat; details: L-NAME 200 mg/day/kg s.c. osmotic mini-pump, 4 days
# Description: The intragastric antrum pressure (IGAP) was measured in normal and diabetic male (FIG. 3A) and female (FIG. 3B) rats. The transducer pressure catheter was introduced into the gastric antrum cavity 5 mm proximal to the pylorus to record IGAP (mmHg×sec). After recording the baseline IGAP, N^G-nitro-L-arginine methyl ester (L-NAME, 200 mg/day/kg body weight (BW)/rat) was administered subcutaneously in the same rats by osmotic mini-pumps (Alza, Palo Alto, Calif., model 2ML1 with a pumping rate of 10 μl/hour) for 4 days. All subsequent studies were performed 1 week after surgery in overnight fasted rats that were awake and in a free-moving state. Pressure recordings were performed at least 2-3 hours between 9-12 am. Bilateral ovariectomy was performed as reported previously. Dietary BH4 (25 mg/day/kg body weight (BE)/rat). *p<0.05. ANOVA.
# Intragastric pressure (IGP) was measured using ambulatory telemetric device. […]
# Dietary BH4 (25 mg/kg b.w/rat/day) was supplemented for female rats for 12 weeks beginning from day 2 after diabetic induction. Intragastric pressure (IGP) was measured in female control, diabetic and diabetic+BH4 treated rats. […] In another experiment, diabetic females were treated for 3 weeks with BH4 and nNOS alpha protein expression was measured in treated and untreated gastric tissues.
# [4] = diabetic female rats + dietary sepiapterin 20 mg kg^−1, 10 days
# [5] = healthy female rats, MTX 3.75 mg kg^−1 i.p. twice a day, 4 days
smiles,measurement,setting,value
"CC(=O)[C@H]1CC[C@H]2[C@@H]3CCC4=CC(=O)CC[C@]4(C)[C@H]3CC[C@]12C [P4, progesterone]",Effect on gastric emptying for solids,female rats,not
"NC1=N[C@H](O)[C@H]2[C@H]3O[C@]4(O)O[C@@H]([C@@H](O)[C@@]2(N1)[C@@H]4O)[C@]3(O)CO [TTX, tetrodotoxin]",Effect on nitrergic relaxation,gastric tissues,abolished
C[C@H](O)[C@H](O)[C@H]1CNc2nc(N)[nH]c(=O)c2N1 [tetrahydrobiopterin],nNOSalpha dimmer/monomer level,nNOSalpha,0.36±0.11
same,nNOSalpha protein level,nNOSalpha protein,0.42±0.05
C[C@H](O)C(=O)C1=Nc2c(nc(N)[nH]c2=O)NC1 [sepiapterin],Body Weight,[1],188 ± 4.3 g
same,Body Weight,[1]; listed as SEP,188 ± 4.3 g
same,nNOSalpha dimmer/monomer level,nNOSalpha,0.64±0.07
same,NO release,[2]; MTX 100 μM + SEP 100 μM,1.02±0.19
same,solid gastric emptying (% in 4 h),"female rats; control female rats + dietary sepiapterin 20 mg kg^−1, 10 days",74±4 % in 4 h
same,solid gastric emptying (% in 4 h),female rats; [4],67.0±8.2 % in 4 h
same,Blood Glucose,"[3]; STZ-diabetic female rats + SEP, fasting",494.5 ± 13.96 mg/dL
same,Effect on blood glucose levels,[3]; both control and diabetic female rats,unchanged
same,Change in nNOSalpha protein expression,"nNOSalpha protein; control female rat gastric antrum, BH4 or sepiapterin",no change
same,nNOSalpha protein level,nNOSalpha protein,0.88±0.15
same,"nitrergic relaxation, gastric antrum, EFS 2 Hz",gastric muscle strips; control female rats + sepiapterin,−0.51±0.06 AUC mg^−1 tissue
same,"nitrergic relaxation, gastric antrum, EFS 2 Hz",gastric muscle strips; [4],−0.35±0.03 AUC mg^−1 tissue
"Nc1cc(O)nc(N)n1 [DAHP, 2,4-diamino-6-hydroxypyrimidine]",Effect on NO release,gastric LM-MPs,decreased
same,Effect on nNOS dimerization,nNOS,decreased
same,Effect on nitrergic relaxation,"gastric tissues; DAHP 10 mM, 3 hours incubation, female control gastric tissues, n=2",inhibited
"CN(Cc1cnc2nc(N)nc(N)c2n1)c1ccc(C(=O)N[C@@H](CCC(=O)O)C(=O)O)cc1 [MTX, methotrexate]",nNOSalpha dimer/monomer ratio,"nNOSalpha; female rat gastric antrum, MTX 3.75 mg kg^−1 twice a day, 4 days",0.2±0.04
same,NO release,[2]; MTX 100 μM,0.73±0.15
same,"nitrergic relaxation, antrum, EFS 2 Hz",gastric muscle strips; [5],−0.08±0.04 AUC mg^−1 tissue
same,"nitrergic relaxation, fundus, EFS 2 Hz",gastric muscle strips; [5],−0.17±0.076 AUC mg^−1 tissue
same,"nitrergic relaxation, pylorus, EFS 2 Hz",gastric muscle strips; [5],−0.13±0.05 AUC mg^−1 tissue
"COC(=O)[C@@H](N)CCCNC(=N)N[N+](=O)[O-] [L-NAME, N^G-nitro-L-arginine methyl ester]",Effect on IGAP,rats; female rats,significantly elevated
same,Effect on IGAP,rats; male rats,decreased
same,Effect on nitrergic relaxation,"gastric tissues; preincubation L-NAME 10^−4M, FC and FD groups, 2 Hz",significant inhibition
"C[C@]12CC[C@@H]3c4ccc(O)cc4CC[C@H]3[C@@H]1CC[C@@H]2O [E2, estradiol-17beta]",Effect on gastric emptying for solids,female rats,significantly delayed
same,Effect on delayed solid gastric emptying,"female rats; diabetic female rats, E2 2 mg/kg, 3 weeks",significantly restored
same,Effect on reduced nNOSalpha protein expression,"nNOSalpha protein; diabetic female rat gastric tissues, E2 2 mg/kg 21 day pellet",significantly restored

# From US9486456B2, “Treatment of esophageal motility disorder using sepiapterin, tetrahydrobiopterin and derivatives thereof” (The Board of Regents of the University of Texas System, priority 2006, dated 2016)
